In brackets after ≈: the same amount, converted by molar mass.
Columns and labels:
[1] = system: multiresistant clinical isolate of Staphylococcus epidermidis; test: MIC, microdilution broth method (NCCLS), Staphylococcus epidermidis; format: cell-based
Protocol: (§1) Cell growth was tested using the Minimal Inhibitory Concentration (MIC) susceptibility tests by use of the microdilution broth method in accordance to the NCCLS Guidelines (NCCLS Guidelines, Methods for Dilution Antimicrobial Susceptibility Tests for Bacteria That Grow Aerobically; Approved Standard, Sixth Edition, Volume 23; Number 2). The minimum inhibitory concentration (MIC), is defined ad the lowest concentration of drug which inhibits growth of the test organism, in the sense that no visible growth is detected (total inhibition of growth). In example 2 MIC of the compounds used on fungal microorganisms was determined from the IC90 measurements according to NCCLS Guidelines.
A log phase culture of bacteria was diluted with fresh pre-warmed Mueller-Hinton medium and adjusted to a defined OD at 600 nm in order to give a final concentration of 1×10^4-5 bacteria/ml medium. The bacterial culture was transferred to microtiter-plates and culture was added to each well. […] Trays were incubated at 37° C. by shaking in a robot analyzer, PowerWavex, software KC^4′ Kebo.Lab, Copenhagen, for 16 h and optical densities were measured at 600 nm during the incubation time in order to record growth curves. Wells containing bacterial culture without drug were used as controls to ensure correct inoculum size and bacterial growth during the incubation. Cultures were tested in order to detect contaminations. Each experiment was repeated in triplicate.
A clinically relevant isolate of Staphylococcus epidermidis was cultured and assayed as described above for susceptibility towards the compounds listed in table 1.

[2] = system: Candida glabrata clinical isolates; test: MIC (90% growth inhibition), broth microdilution NCCLS M27-A, Candida glabrata; format: cell-based
Protocol: as §1, with “Guidelines. […]” for “Guidelines.”
4 clinical isolates of Candida sp. (including 3 fluconazole resistant isolates) were subcultured for 24 h on Sabouraud glucose agar before susceptibility testing. Broth microdilution tests were performed according to NCCLS document M27-A (Ref: National Committee for Clinical Laboratory Standards. (1997). Reference Method for Broth Dilution Antifungal Susceptibility Testing of Yeasts: Approved Standard M27-A. NCCLS, Wayne, Pa.). Microtitre plates were read spectrophotometrically at 530 nm, after mixing the wells by pipetting to resuspend yeast sediments. In this experiment, the MIC was defined as the lowest drug dilution resulting in 90% growth inhibition.

Gram negative sp. = test: MIC/IC90 broad spectrum, Gram negative sp.; format: cell-based; details: 25 strains, 20 resistant
Protocol: as §1
A log phase culture of bacteria was diluted with fresh pre-warmed Mueller-Hinton medium and adjusted to a defined OD at 600 nm in order to give a final concentration of 1×10^4-5 bacteria/ml medium. The bacterial culture was transferred to microtiter-plates and culture was added to each well. Drug was added to the bacterial culture in the wells as two-fold dilution series of drug in order to give final concentrations ranging from 0.03 to 128 μg/ml. Trays were incubated at 37° C. by shaking in a robot analyzer, PowerWavex, software KC^4′ Kebo.Lab, Copenhagen, for 16 h and optical densities were measured at 600 nm during the incubation time in order to record growth curves. Wells containing bacterial culture without drug were used as controls to ensure correct inoculum size and bacterial growth during the incubation. Cultures were tested in order to detect contaminations. Each experiment was repeated in triplicate. MIC values represent the mean values of two separate triplicate experiments. Intra- and interassay variation was <5%.
Inhibition 90 (IC90) is defined as: OD responding a 90% growth inhibition.
A broad spectrum of bacteria were cultured and assayed as described above for susceptibility towards N-dealkyl-clopenthixol.

[3] = system: Enterococcus faecalis BG VSE-92; test: Mouse peritonitis/sepsis model; format: in vivo, NMRI mice; details: 25 mg/kg s.c.
Protocol: A clinical multiresistant isolate of Enterococcus faecalis BG VSE-92 from human urine was used.
Female NMRI mice (age, approximately 6 to 8 weeks; weight, 30±2 g) were used for the mouse […] peritonitis model (as described below).
Bacterial suspensions were prepared from fresh overnight cultures (made from frozen stock cultures) on 5% blood agar plates as described above. The inoculum for the mouse peritonitis model was prepared immediately before use and was adjusted at 540 nm of giving a density of approximately 10^7 CFU/ml. The size of the inoculum was determined by viability counting on 5% blood agar.
The mice were injected intraperitoneally with 0.5 ml of the enterococcal suspension, resulting in bacteremia within 1 h of inoculation. Antibiotic therapy was initiated 1 h after inoculation. N-dealkyl-trans-clopenthixol was administered subcutaneously in the neck region in a volume of 0.7 ml per dose. Ten mice were in each treatment group. Inoculated untreated control mice were included in all trials. (Method reference: Erlandsdottir et al; Antimicrob Agents Chemother. 2001 April; 45(4):1078-85)
The effects of the various treatment regimens were determined during 6 h of treatment by evaluation of bacterial counts in the […]. After the mice were killed, blood were immediately diluted 10-fold in saline, from which 20 μl was plated onto 5% blood agar plates in spots, with subsequent counting of colonies after incubation overnight at 35° C. The lowest detection levels for bacterial counts in blood were 50 CFU/ml.
The bactericidal efficacies of the treatment regimens in the mouse models were calculated by subtracting the results for each treated mouse from the mean results for control mice at the end of therapy (6 h). A P value of <0.05 was considered significant. All statistical comparisons were two-tailed.

[4] = 6 hours after inoculation, infected mice

Clc1ccc2c(c1)/C(=C/CCN1CCNCC1)c1ccccc1S2 [N-dealkyl-trans-clopenthixol, trans-1-(3-(2-chloro-thioxanthen-9-ylidene)propyl)piperazine]
MIC ([1]; Staphylococcus epidermidis multiresistant isolate, Example 6, isomers alone and 1:1 mixture): 0.5 mg/L (≈ 1.4 µM) | MIC ([1]; multiresistant clinical isolate of Staphylococcus epidermidis, Example 1): 0.5 mg/L (≈ 1.4 µM) | MIC ([2]; strain 2. Candida glabrata FR (fluconazole resistant)): 1 mg/L (≈ 2.8 µM) | MIC ([2]; strain 4. Candida glabrata FR (fluconazole resistant)): 0.5 mg/L (≈ 1.4 µM) | MIC ([2]; strain 5. Candida glabrata): 0.5 mg/L (≈ 1.4 µM) | MIC (mean) (Gram negative sp.): 2 mg/L (≈ 5.6 µM) | MIC range (Gram negative sp.): 0.5 to 2 mg/L | Cfu/ml blood (median) [3, 4]: 1.55 × 10^4 Cfu/ml blood | Log (cfu/ml blood) (median) [3, 4]: 4.19 Log (cfu/ml blood) | decrease of number of bacteria per ml of blood ([3]; p<0.05): approx. 2 log

— US20100113430A1, “THIOXANTHENE DERIVATES USEFUL TO TREAT INFECTIOUS DISEASES” (BKG PHARMA APS, priority 2007, published 2010)
